Patent publication US9944752B2, “Block copolymers for stable micelles” (Intezyne Technologies, Inc., priority 2012, dated 2018)

Experiments:
[1] = system: PANC-1 pancreatic (folate receptor +) cancer cells; test: In-vitro cytotoxicity of aminopterin formulations (cell titer-glo); type: cell-based; details: Homo sapiens, PANC-1, 72 h, read-out: IC50 (cell viability inhibited by 50%)
Experimental: (§1) Cells originally purchased from ATCC (A549, Panc-1, OVCAR3, and BXPC-3) were seeded in 96 well tissue culture plates to be 50% confluent by 24 hours. Cells were incubated at 37° C. with 5.0% CO2. Cells were treated with escalating doses of free aminopterin, crosslinked aminopterin formulation, uncrosslinked aminopterin formulation, and non drug-loaded micelle formulations 24 hours after plate seeding. Free aminopterin was dissolved in DMSO and administered to cells with a total volume of DMSO equal to or less than 0.0025%. Micelle formulations were re-suspended in biology grade water. Dilutions were done in deep well plates with cell media and water or DMSO (for free aminopterin only) equalizing displaced volume. Incubation media was aspirated from the 96 well plates and 100 μl of each dilution was added to the wells in triplicate and incubated over 72 hours at 37° C. with 5.0% CO2. Crosslinked and uncrosslinked non drug-loaded micelle formulations were administered at the four highest doses and were calculated at comparative mg/ml concentrations to drug-loaded micelle concentrations of delivery vehicle. […] Plates were briefly shaken to mix and luminescence readings were read on a plate reader. Luminescence reading for triplicate doses are averaged and divided by average luminescence readings from untreated cells on the same plate to calculate the % of viable cells per dose. […]

A549 lung cancer cells = test: as above; type: cell-based; details: Homo sapiens, A549, 72 h, read-out: IC50 (cell viability inhibited by 50%)
Experimental: as §1

[2] = Rat pharmacokinetics of crosslinked cabizataxel micelles; design: species or system Fisher rats; details: Fisher, in vivo, iv, 5 mg/kg
Text: The delivery vehicle for drug administration was isotonic saline.

[3] = design: species or system Fisher rats; details: Fisher, rat, in vivo, iv, 10 mg/kg
Experimental: The delivery vehicle for drug administration was isotonic saline. […] Samples were analyzed on a Waters Alliance 2695 equipped with a 2475 fluorescence detector (Ex=470 nm; Em=580). A 5 μL sample injection was made onto a Waters 4 μm Nova Pak C18 (3.9×150 mm) at 30° C. with a flow rate of 0.750 mL per minute of 10 mM phosphate buffer (pH=1.4), methanol and acetonitrile (gradient from 70/10/20 to 40/10/50 for buffer/methanol/acetonitrile was made over eight minutes). Analyte eluted at 5.9 minutes under these conditions, was normalized to the internal standard, and quantitated using a standard curve comprised of seven standards.

## Nc1nc(N)c2nc(CNc3ccc(C(=O)N[C@@H](CCC(=O)O)C(=O)O)cc3)cnc2n1 [Aminopterin, aminopterin]
[1]
  IC50: 7 to 25 nM
A549 lung cancer cells
  IC50: 7 to 25 nM

## CO[C@H]1C(=O)[C@]2(C)[C@@H](OC)C[C@H]3OC[C@@]3(OC(C)=O)[C@H]2[C@H](OC(=O)c2ccccc2)[C@]2(O)C[C@H](OC(=O)[C@H](O)[C@@H](NC(=O)OC(C)(C)C)c3ccccc3)C(C)=C1C2(C)C [free cabizataxel, cabazitaxel]
[2]
  Exposure of cabazitaxel to the plasma compartment over 15 minutes: 200 ng·h/mL

## COc1cccc2c1C(=O)c1c(O)c3c(c(O)c1C2=O)C[C@@](O)(C(C)=O)C[C@@H]3O[C@H]1C[C@H](N)[C@H](O)[C@H](C)O1 [free daunorubicin, daunorubicin]
[3]
  CMax: 3.3 µg/mL
  Half-life: 3.3 h
